Format in all cases: in vivo
One series concerns Echinochloa crus-galli. Briefly: Paddy herbicidal activity test. Conditions: irrigated paddy pot, treated at 3.5 leaf stage of Echinochloa crus-galli, 30 days. In short, it runs like this:
(§1)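 Flooded paddy-soil pots (3 cm water) were sown with Echinochloa, Monochoria and Scirpus, and rice at the 2.0-leaf stage was transplanted. Diluted wettable powder was dripped in per are at weed 3.5-leaf stage. After 30 days in a greenhouse (~30 °C), growth inhibition versus untreated plants was scored on an 11-level scale.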

The test system of the next series is Monochoria vaginalis. Briefly: Paddy herbicidal activity test. Conditions: irrigated paddy pot, 30 days. In outline: as §1
Another series has as its system Scirpus juncoides. Kind of series: Paddy herbicidal activity test. Conditions: irrigated paddy pot, 30 days. In short, it runs like this:
as §1

The test system of series [1] is Amaranthus retroflexus. Briefly: Farming soil treatment test. Conditions: soil surface spray prior to weed growth, 30 days. On the procedure: (§2) Field soil was filled into a 1/6000 are pot followed by seeding with Digitaria ciliaris, Chenopodium album and Amaranthus retroflexus and covering with soil.
(§3) Wettable powder of compounds of formula (I) shown in Table 1 prepared in compliance with the preparation examples were diluted with water to the prescribed amount of chemical and uniformly sprayed onto each soil surface layer using 10 liters of sprayed water per are prior to weed growth following seeding.
(§4) After treating for 30 days in a glass greenhouse at an average atmospheric temperature of 30° C., the herbicidal efficacy thereof was investigated.
(§5) Evaluation of herbicidal efficacy is carried out in the same manner as the above-mentioned Test Example 1.

Series [2] has as its system Chenopodium album. Kind of series: Farming soil treatment test. Conditions: soil surface spray prior to weed growth, 30 days. On the procedure:
as §2, §3, §4, §5

In series [3] the test system is Digitaria ciliaris. Briefly: Farming soil treatment test. Conditions: soil surface spray prior to weed growth, 30 days. The protocol:
as §2, §3, §4, §5

Series [4] has as its system Amaranthus retroflexus. Kind of series: Weed foliar treatment test. Conditions: foliar spray, 3 weeks. The protocol: (§6) Soil was filled into a 1/6000 are pot followed by seeding with Digitaria ciliaris, Chenopodium album and Amaranthus retroflexus, covering with soil, and cultivating in a glass greenhouse at an average atmospheric temperature of 25° C.
(§7) Wettable powder of Target Compound (I) shown in Table 1 prepared in compliance with the preparation examples were diluted with water to the prescribed amount of chemical and uniformly sprayed onto the weeds using 15 liters of sprayed water per are when Digitaria ciliaris had grown to the 1.0 to 2.0 leaf stage.
(§8) After treating for 3 weeks in a glass greenhouse at an average atmospheric temperature of 25° C., the herbicidal efficacy thereof was investigated.
(§9) Evaluation of herbicidal efficacy was carried out in the same manner as the above-mentioned Test Example 1.

Series [5] concerns Chenopodium album. Kind of series: Weed foliar treatment test. Conditions: foliar spray, 3 weeks. The protocol:
as §6, §7, §8, §9

The test system of series [6] is Digitaria ciliaris. Kind of series: Weed foliar treatment test. Conditions: foliar spray at 1.0 to 2.0 leaf stage of Digitaria ciliaris, 3 weeks. The protocol:
as §6, §7, §8, §9

The test system of another series is Rice plants. Briefly: Paddy herbicidal activity test, phytotoxicity to transplanted rice. Conditions: rice transplanted at 2.0 leaf stage, 30 days. The protocol: Rice paddy soil was filled into a 1/10000 are pot followed by the addition of suitable amounts of water and chemical fertilizer, kneading, seeding with Echinochloa crus-galli, Monochoria vaginalis and Scirpus juncoides and maintaining in an irrigated state at a water depth of 3 cm.
Wettable powder of Target Compound (I) shown in Table 1 prepared in compliance with the preparation examples were diluted with a suitable amount of water, rice plants in the 2.0 leaf stage were transplanted during 3.5 leaf stage of Echinochloa crus-galli, and treated by dropping in chemical in the prescribed amount per are using a pipette.
as §4
Evaluation of herbicidal efficacy was carried out by comparing growth inhibition rate (%) with an untreated group, while evaluation of phytotoxicity was carried out by comparing growth inhibition rate (%) with the state of a complete eradication group, and were evaluated at 11 levels indicated below.

For the compound `CC=CCN(C(=O)C(F)(F)F)c1c(C#N)cnn1-c1nn2c(c1Cl)CCCC2` (mixture of isomers) [Compound 24], the “Echinochloa crus-galli herbicidal efficacy (growth inhibition level)” value is recorded as 9 (9: 90% to less than 100%) with Echinochloa crus-galli (1g a.i./10a) and 10 (10: 100%) in the series with Echinochloa crus-galli (5g a.i./10a). Also, the “Monochoria vaginalis herbicidal efficacy (growth inhibition level)” value with Monochoria vaginalis (1g a.i./10a) is 8 (8: 80% to less than 90%); in the series with Monochoria vaginalis (5g a.i./10a) it was 9 (9: 90% to less than 100%). Also, the “Scirpus juncoides herbicidal efficacy (growth inhibition level)” value with Scirpus juncoides (1g a.i./10a) is 8 (8: 80% to less than 90%); in the series with Scirpus juncoides (5g a.i./10a), 9 (9: 90% to less than 100%). The “Amaranthus retroflexus herbicidal efficacy (growth inhibition level)” value in the series with Amaranthus retroflexus [1] (5g a.i./10a), in the series with Amaranthus retroflexus [1] (10g a.i./10a), in the series with Amaranthus retroflexus [4] (5g a.i./10a) and in the series with Amaranthus retroflexus [4] (10g a.i./10a) was 10 (10: 100%) each time. The “Chenopodium album herbicidal efficacy (growth inhibition level)” value with Chenopodium album [2] (5g a.i./10a), with Chenopodium album [2] (10g a.i./10a), in the series with Chenopodium album [5] (5g a.i./10a) and in the series on Chenopodium album [5] (10g a.i./10a) was 10 (10: 100%) throughout. Besides, the “Digitaria ciliaris herbicidal efficacy (growth inhibition level)” value in the series with Digitaria ciliaris [3] (5g a.i./10a), in the series on Digitaria ciliaris [3] (10g a.i./10a), in the series on Digitaria ciliaris [6] (5g a.i./10a) and with Digitaria ciliaris [6] (10g a.i./10a) was 10 (10: 100%) in each case.

As for `C=C(Cl)CN(C(=O)C(F)(F)F)c1c(C#N)cnn1-c1nn2c(c1Cl)CCCC2` [Compound 3, (N-1-(3-chloro-4,5,6,7-tetrahydropyrazolo[1,5-a]pyridin-2-yl)-4-cyanopyrazol-5-yl)-N-(2-chloroprop-2-enyl)-2,2,2-trifluoroacetamide], the “Echinochloa crus-galli herbicidal efficacy (growth inhibition level)” value in the series with Echinochloa crus-galli (1g a.i./10a) is on record as 9 (9: 90% to less than 100%); in the series on Echinochloa crus-galli (5g a.i./10a) it was 10 (10: 100%). Also, the “Monochoria vaginalis herbicidal efficacy (growth inhibition level)” value in the series on Monochoria vaginalis (1g a.i./10a) and in the series with Monochoria vaginalis (5g a.i./10a) was 9 (9: 90% to less than 100%) in each case. For the same compound, the “Scirpus juncoides herbicidal efficacy (growth inhibition level)” value in the series on Scirpus juncoides (1g a.i./10a) was 7 (7: 70% to less than 80%); in the series with Scirpus juncoides (5g a.i./10a), 8 (8: 80% to less than 90%). Further, the “Rice plants phytotoxicity (growth inhibition level)” value with Rice plants (1g a.i./10a) and with Rice plants (5g a.i./10a) was 0 (0 (exponent): 0% to less than 10% (growth inhibition rate)) each time. Further, the “Amaranthus retroflexus herbicidal efficacy (growth inhibition level)” value in the series on Amaranthus retroflexus [1] (5g a.i./10a), in the series on Amaranthus retroflexus [1] (10g a.i./10a), in the series on Amaranthus retroflexus [4] (5g a.i./10a) and in the series on Amaranthus retroflexus [4] (10g a.i./10a) was 10 (10: 100%) throughout. In addition, the “Chenopodium album herbicidal efficacy (growth inhibition level)” value in the series on Chenopodium album [2] (5g a.i./10a), with Chenopodium album [2] (10g a.i./10a), in the series with Chenopodium album [5] (5g a.i./10a) and with Chenopodium album [5] (10g a.i./10a) was 10 (10: 100%) throughout. For the same compound, the “Digitaria ciliaris herbicidal efficacy (growth inhibition level)” value with Digitaria ciliaris [3] (5g a.i./10a), in the series with Digitaria ciliaris [3] (10g a.i./10a), with Digitaria ciliaris [6] (5g a.i./10a) and with Digitaria ciliaris [6] (10g a.i./10a) was 10 (10: 100%) throughout.

Turning to `O=[N+]([O-])c1cnn(-c2nn3c(c2Cl)CCCC3)c1NC/C=C\Cl` [Compound 32], the “Echinochloa crus-galli herbicidal efficacy (growth inhibition level)” value in the series on Echinochloa crus-galli (1g a.i./10a) is 8 (8: 80% to less than 90%); with Echinochloa crus-galli (5g a.i./10a), 9 (9: 90% to less than 100%). Besides, the results for the “Monochoria vaginalis herbicidal efficacy (growth inhibition level)” value in the series on Monochoria vaginalis (1g a.i./10a) and with Monochoria vaginalis (5g a.i./10a) were 9 (9: 90% to less than 100%) and 10 (10: 100%), respectively. Moreover, the “Scirpus juncoides herbicidal efficacy (growth inhibition level)” value was 8 (8: 80% to less than 90%) in the series on Scirpus juncoides (1g a.i./10a) and 10 (10: 100%) in the series with Scirpus juncoides (5g a.i./10a). In addition, the “Amaranthus retroflexus herbicidal efficacy (growth inhibition level)” value in the series on Amaranthus retroflexus [1] (5g a.i./10a), with Amaranthus retroflexus [1] (10g a.i./10a), with Amaranthus retroflexus [4] (5g a.i./10a) and with Amaranthus retroflexus [4] (10g a.i./10a) was 10 (10: 100%) in each case. The “Chenopodium album herbicidal efficacy (growth inhibition level)” value in the series on Chenopodium album [2] (5g a.i./10a), with Chenopodium album [5] (5g a.i./10a) and in the series with Chenopodium album [5] (10g a.i./10a) was 10 (10: 100%) in each case. The “Digitaria ciliaris herbicidal efficacy (growth inhibition level)” value in the series with Digitaria ciliaris [3] (5g a.i./10a), in the series with Digitaria ciliaris [3] (10g a.i./10a), in the series with Digitaria ciliaris [6] (5g a.i./10a) and in the series on Digitaria ciliaris [6] (10g a.i./10a) was 10 (10: 100%) throughout.

Regarding `N#Cc1cnn(-c2nn3c(c2Cl)CCCC3)c1N(C/C=C\Cl)C(=O)C(F)(F)F` [Compound 21], the “Echinochloa crus-galli herbicidal efficacy (growth inhibition level)” value in the series on Echinochloa crus-galli (1g a.i./10a) and in the series on Echinochloa crus-galli (5g a.i./10a) was 9 (9: 90% to less than 100%) each time. Besides, the “Monochoria vaginalis herbicidal efficacy (growth inhibition level)” value in the series on Monochoria vaginalis (1g a.i./10a) and with Monochoria vaginalis (5g a.i./10a) was 9 (9: 90% to less than 100%) each time. In addition, the “Scirpus juncoides herbicidal efficacy (growth inhibition level)” value in the series with Scirpus juncoides (1g a.i./10a) was 8 (8: 80% to less than 90%); in the series with Scirpus juncoides (5g a.i./10a), 10 (10: 100%). The “Amaranthus retroflexus herbicidal efficacy (growth inhibition level)” value in the series on Amaranthus retroflexus [1] (5g a.i./10a), in the series with Amaranthus retroflexus [1] (10g a.i./10a), with Amaranthus retroflexus [4] (5g a.i./10a) and in the series with Amaranthus retroflexus [4] (10g a.i./10a) was 10 (10: 100%) each time. Also, the “Chenopodium album herbicidal efficacy (growth inhibition level)” value in the series on Chenopodium album [2] (5g a.i./10a), with Chenopodium album [2] (10g a.i./10a), in the series on Chenopodium album [5] (5g a.i./10a) and in the series with Chenopodium album [5] (10g a.i./10a) was 10 (10: 100%) in each case. Also, the “Digitaria ciliaris herbicidal efficacy (growth inhibition level)” value with Digitaria ciliaris [3] (5g a.i./10a), with Digitaria ciliaris [3] (10g a.i./10a), with Digitaria ciliaris [6] (5g a.i./10a) and in the series with Digitaria ciliaris [6] (10g a.i./10a) was 10 (10: 100%) in each case.

Source of the values: US9593122B2, “Substituted pyrazolylpyrazole derivative and use of same as herbicide” (KYOYU AGRI CO., LTD., priority 2013, dated 2017).
